From patent publication US6632616B2, “Compounds that selectively bind to expanded polyglutamine repeat domains and methods of use thereof” (Duke University, priority 2000, dated 2003) come the findings set out here.

“Also recorded” adds a separate entry of the source. No end group written: not given here.

The subject of one data set is Qn-YFP. Kind of data set: Polyglutamine-YFP (Qn-YFP) aggregate formation in co-transfected COS-7 cells, all lengths. The following applies: co-expression, 48 hours after transfection, FIG. 4. Type of data set: cell-based. As to the method: COS-7 cells examined 48 hours after transfection using a Zeiss fluorescence microscope with the CFP/YFP filter set from Omega Optical Inc. The percentage of cells with aggregates was calculated by counting the number of transfected cells containing aggregate and dividing by the total number of transfected cells multiplied times 100. In each experiment at least 200 transfected cells were counted. Experiments were repeated at least four times. Error bars represent standard errors. *=p<0.05;**=p<0.01 (Student's t-test)
(§1) The CAG repeat of the Qn-GFP vector (Onodera, O. et al. (1996) FEBS Letters 399, 135-139) were inserted into the XhoI and EcoRI sites of the pEYFP-N1 vector (Clontech, Palo Alto, Calif.) to construct the Qn-YFP vectors. The polyglutamine-binding peptide and control constructs were prepared by ligating synthetic oligonucleotides into the XhoI and BamHI sites of the pECFP-N1 vector (Clontech) to obtain glutamine binding peptide 1-CFP (QBP1-CFP), scrambled QBP1-CFP (SCR-CFP), and a computer-generated random peptide-CFP (RAN)-CFP. The insert of QBP1-CFP was duplicated by PCR to obtain a tandem repeat of QBP1-CFP ((QBP1)2-CFP). The sequence of all constructs was confirmed by DNA sequencing. […]
(§2) COS-7 cells were grown and maintained in Dulbecco's modified Eagles' medium (DMEM) supplemented with 10% fetal calf serum (FCS). […] Cells were examined 48 hours after transfection using a Zeiss fluorescence microscope equipped with YFP/CFP filter sets (Omega Optical Inc., Brattleboro, Vt.). The percentage of cells with aggregates was calculated by dividing the number of cells with aggregates by the total number of fluorescent cells, multiplied by 100. […] Cells were incubated with 5 μM ethidium homodimer for 30 minutes (37° C.) and then examined under a fluorescence microscope equipped with a rhodamine filter set. Cells with nuclear fluorescence were counted as dead. In each experiment at least 200 transfected cells were counted. […]

The next data set relates to thio-Q19 or 35. The data set is described as follows: Thioredoxin-polyglutamine turbidity assay, nonpathologic thio-Q19 or 35. The format is biochemical. As to the method:
(§3) Turbidity assays were performed in 200 μl reactions consisting of thioredoxin-polyglutamine in PBS in 96-well, low protein binding plates. Plates were incubated at 4° C. and turbidity measured at 405 nm on a Thermo Max plate reader (Molecular Devices).
(§4) Peptides were synthesized at the Howard Hughes Medical Institute peptide sequencing facility at Duke University with an acetylated amino terminus and protection of tryptophan with BOC during synthesis. Identical results were obtained with peptides obtained from Bio-Synthesis Inc. (Lewisville, Tex.). Stock solutions of peptides were prepared fresh daily by dissolving in dimethyl sulfoxide at 2.5 mM and incubated with thioredoxin-polyglutamine protein at 0.25-25 μM.
(§5) To monitor thioredoxin-polyglutamine protein aggregation a turbidometric assay was developed, similar to the assays commonly used to study microtubule assembly and β-amyloid aggregation (Jarrett, J. T. et al. (1993) Biochem 32, 4693-4697; Sloboda, R. D. et al. (1976) Biochem 15, 4497-4505). Solutions of thio-Q62 and 81 protein increased turbidity in a polyglutamine length-, time- and concentration-dependent manner (FIG. 1B and C; Time dependence of aggregation of thioredoxin-polyglutamine with 81 glutamines not shown). […] The pelleted and retained material was confirmed as thioredoxin-polyglutamine fusion protein containing 62 or 81 glutamines on western blots probed with anti-thioredoxin or anti-polyglutamine antibody (not shown). In contrast, thioredoxin-polyglutamine protein containing 19 or 35 glutamines (thio-Q19 or 35) was not pelleted by centrifugation and was not trapped by a 0.22 μm filter.

A further data set concerns thio-Q62. Kind of data set: Thioredoxin-polyglutamine turbidity (aggregation) assay, thio-Q62. The format is biochemical. The following applies: for inhibition of thio-Q62 aggregation (in words): turbidity at 405 nm, FIG. 2; for inhibition of polyglutamine-thioredoxin aggregation (FIG. 6 and 7): peptides at 1 and 10 microMolar. As for the experimental part: as §3, §4, §5

Another data set concerns Q45-YFP. The data set is described as follows: Q45-YFP aggregate formation in co-transfected COS-7 cells. The format is cell-based. The following applies: COS-7, 48 hours. As to the method: (§6) COS-7 cells examined 48 hours after transfection using a Zeiss fluorescence microscope with the CFP/YFP filter set from Omega Optical Inc. The percentage of cells with aggregates was calculated by counting the number of transfected cells containing aggregate and dividing by the total number of transfected cells multiplied times 100. In each experiment at least 200 transfected cells were counted. Experiments were repeated at least four times. Error bars represent standard errors. *=p<0.05;**=p<0.01 (Student's t-test) […]
as §2

The test system of another data set is Q19-YFP. Kind of data set: Intracellular distribution of Q19-YFP in co-transfected COS-7 cells. The format is cell-based. As to the method:
as §1
as §2, with “dead.” for “dead. In each experiment at least 200 transfected cells were counted.”

Data set [1] deals with Q81-YFP. Kind of data set: Co-localization with Q81-YFP aggregates in co-transfected COS-7 cells. Type of data set: cell-based. The following applies: co-expression, 48 hours after transfection. As to the method:
The CAG repeat of the Qn-GFP vector (Onodera, O. et al. (1996) FEBS Letters 399, 135-139) were inserted into the XhoI and EcoRI sites of the pEYFP-N1 vector (Clontech, Palo Alto, Calif.) to construct the Qn-YFP vectors. The polyglutamine-binding peptide and control constructs were prepared by ligating synthetic oligonucleotides into the XhoI and BamHI sites of the pECFP-N1 vector (Clontech) to obtain glutamine binding peptide 1-CFP (QBP1-CFP), scrambled QBP1-CFP (SCR-CFP), and a computer-generated random peptide-CFP (RAN)-CFP. The insert of QBP1-CFP was duplicated by PCR to obtain a tandem repeat of QBP1-CFP ((QBP1)2-CFP). The sequence of all constructs was confirmed by DNA sequencing. The first methionine of YFP or CFP was changed to isoleucine by PCR site-directed mutagenesis to eliminate translation of the fluorescent protein without the polyglutamine domain. The sizes of the fluorescent fusion proteins were confirmed by western blotting.
COS-7 cells were grown and maintained in Dulbecco's modified Eagles' medium (DMEM) supplemented with 10% fetal calf serum (FCS). Cells were transfected with Effectene according to manufacturer's instructions (Qiagen GmbH, Hilden, Germany). Cells were examined 48 hours after transfection using a Zeiss fluorescence microscope equipped with YFP/CFP filter sets (Omega Optical Inc., Brattleboro, Vt.). The percentage of cells with aggregates was calculated by dividing the number of cells with aggregates by the total number of fluorescent cells, multiplied by 100. Cell viability was examined 48 hours after transfection using ehtidium homodimer (Molecular Probes, Eugene, Oreg.). Cells were incubated with 5 μM ethidium homodimer for 30 minutes (37° C.) and then examined under a fluorescence microscope equipped with a rhodamine filter set. Cells with nuclear fluorescence were counted as dead. In each experiment at least 200 transfected cells were counted. Cells expressing random peptide-CFP (RAN-CFP) and polyglutamine-YFP (Qn-YFP) were used as a control to calculate the relative difference in aggregate formation and cell death. […]

Data set [2] relates to Q81-YFP. The data set is described as follows: Q81-YFP aggregate formation in co-transfected COS-7 cells. The format is cell-based. The following applies: COS-7, 48 hours. As to the method:
as §6, §2

A further data set concerns Q57-YFP. Kind of data set: Q57-YFP aggregate formation in co-transfected COS-7 cells. The following applies: COS-7, 48 hours. Type of data set: cell-based. As to the method: as §6, §2
Data set [3] has as its system Q57-YFP induced cell death. The data set is described as follows: Q57-YFP induced cell death in co-transfected COS-7 cells (ethidium homodimer). Type of data set: cell-based. The following applies: peptides fused to CFP, co-expressed; for inhibition of Q57-YFP induced cell death: COS-7, 48 hours, ethidium homodimer. As to the method:
FIG. 5. […] Open bar=cells co-transfected with Q57-YFP and RAN-CFP. Hatched bar=cells co-transfected with Q57-YFP and SCR-CFP. Filled bar=cells co-transfected with Q57-YFP and QBP1-CFP. Dotted bar=cells co-transfected with Q57-YFP and (QBPI)2-CFP. COS-7 cells examined 48 hours after transfection using a Zeiss fluorescence microscope with rhodamine filter set. The percentage of dead cells was calculated by counting the number of transfected cells stained with ethidium homodimer and dividing by the total number of transfected cells multiplied times 100. In each experiment at least 200 transfected cells were counted. Experiments were repeated at least three times. Error bars represent standard errors. *=p<0.05; **=p<0.01 (Student's t-test).
COS-7 cells were grown and maintained in Dulbecco's modified Eagles' medium (DMEM) supplemented with 10% fetal calf serum (FCS). Cells were transfected with Effectene according to manufacturer's instructions (Qiagen GmbH, Hilden, Germany). Cells were examined 48 hours after transfection using a Zeiss fluorescence microscope equipped with YFP/CFP filter sets (Omega Optical Inc., Brattleboro, Vt.). The percentage of cells with aggregates was calculated by dividing the number of cells with aggregates by the total number of fluorescent cells, multiplied by 100. Cell viability was examined 48 hours after transfection using ehtidium homodimer (Molecular Probes, Eugene, Oreg.). Cells were incubated with 5 μM ethidium homodimer for 30 minutes (37° C.) and then examined under a fluorescence microscope equipped with a rhodamine filter set. Cells with nuclear fluorescence were counted as dead. In each experiment at least 200 transfected cells were counted. Cells expressing random peptide-CFP (RAN-CFP) and polyglutamine-YFP (Qn-YFP) were used as a control to calculate the relative difference in aggregate formation and cell death. Experiments were repeated at least four times.
The relationship between polyglutamine protein aggregation and cell death is controversial. To determine whether QBP1 or tandem-QBP1 inhibit polyglutamine-induced cell death, cell membrane permeability to ethidium homodimer was assayed. The membranes of living cells are impermeable to ethidium homodimer and permeability to ethidium homodimer is a well-established measure of cell death. Ethidium homodimer undergoes a 30-fold increase in fluorescence upon binding to nucleic acid allowing easy detection with a fluorescence microscope using a rhodamine filter. QBP1 and tandem QBP1 ((QBP1)2) fused to CFP inhibit Q57-YFP induced cell death (FIG. 5). […] Similar results have also been observed with Q45- and Q81-YFP (not shown).

Setting [4] is: compared to cells co-expressing RAN-CFP.

Sequence of thio-Q62 (as listed by the source): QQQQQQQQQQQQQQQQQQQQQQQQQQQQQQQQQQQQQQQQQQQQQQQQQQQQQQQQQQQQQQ
Sequence of Q81-YFP (as listed by the source): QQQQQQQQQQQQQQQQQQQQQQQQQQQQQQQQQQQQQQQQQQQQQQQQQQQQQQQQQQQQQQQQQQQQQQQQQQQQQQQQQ
Sequence of Q57-YFP (as listed by the source): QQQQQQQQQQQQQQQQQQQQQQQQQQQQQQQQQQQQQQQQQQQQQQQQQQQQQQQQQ
Sequence of Q45-YFP (as listed by the source): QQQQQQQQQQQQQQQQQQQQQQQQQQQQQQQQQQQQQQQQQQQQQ

In the case of “(QBP1)2-CFP: tandem repeat of QBP1 fused to cyan fluorescent protein (SNWKWWPGIFDSNWKWWPGIFD; also: fused to cyan fluorescent protein)”, the “effect on percentage of cells with polyglutamine aggregates” value (shortened to “effect on percentage of cells”) with Qn-YFP is “more effective”.
On to “LSLMEFGCRGA [RAN, computer-generated random 11 amino acid peptide, reference compound]”, for which the “effect on turbidity of nonpathologic thio-Q19 or 35” value in the data set with thio-Q19 or 35 is given as “no effect”. Further, the “inhibition of thio-Q62 aggregation (in words)” value in the data set on thio-Q62 is “did not inhibit aggregation”.
Turning to “QBP1-CFP: QBP1 fused to cyan fluorescent protein, expressed in COS-7 cells (SNWKWWPGIFD; also: fused to cyan fluorescent protein)”, in the data set with Qn-YFP, the “effect on percentage of cells” value was “reduced the percentage of cells with polyglutamine aggregates”. Also, in the data set with Q45-YFP (setting [4]), the “reduction of Q45-YFP aggregation” value is 39%. For the same substance, the “effect of co-expression on Q19-YFP distribution” value with Q19-YFP is “unaffected”. For the same substance, the “co-localization with Q81-YFP aggregates” value with Q81-YFP [1] was “co-localization”.
Take “RAN-CFP: computer-generated random peptide fused to cyan fluorescent protein (LSLMEFGCRGA; also: fused to cyan fluorescent protein)”: the “co-localization with Q81-YFP aggregates” value in the data set with Q81-YFP [1] was “did not co-localize”.
As to “SCR-CFP: scrambled QBP1 fused to cyan fluorescent protein (WPIWSKGNDWF; also: fused to cyan fluorescent protein) [reference compound]”, the “effect on Q81-YFP aggregation (in words)” value with Q81-YFP [2] is listed as “did not alter aggregation”. The “effect on Q45-YFP aggregation (in words)” value in the data set on Q45-YFP was “did not alter aggregation”. In the data set on Q81-YFP [1], the “co-localization with Q81-YFP aggregates” value is listed as “did not co-localize”. Moreover, the “effect on Q57-YFP aggregation (in words)” value in the data set on Q57-YFP is listed as “did not alter aggregation”.
For the substance SNWKWWPGIFD [QBP1], the “effect on Q81-YFP aggregation (in words)” value with Q81-YFP [2] is “did not reach statistical significance”. The “effect on percentage of cells” value with Qn-YFP is “decreases the number of cells containing polyglutamine aggregates”. The “effect on turbidity of nonpathologic thio-Q19 or 35” value with thio-Q19 or 35 is given as “no effect”. In addition, in [3], the “inhibition of Q57-YFP induced cell death” value was “inhibit; also recorded: inhibits polyglutamine-mediated cell death”. Further, in the data set on Q57-YFP (setting [4]), the “reduction of Q57-YFP aggregation” value came to 26%. In addition, the “reversal of thio-Q62 aggregation” value in the data set with thio-Q62 (peptide added after aggregation) is on record as “did not reverse aggregation”. Besides, the entries for the “inhibition of thio-Q62 aggregation (in words)” value with thio-Q62 and in the data set on thio-Q62 (listed as QBP 1) were “potently inhibited” and “inhibits thio-Q62 aggregation in a concentration-dependent pattern”, respectively.
For “SNWKWWPGIFDSNWKWWPGIFD [(QBP1)2, tandem repeat of QBP1]”, in [3], the “inhibition of cell death compared with monomer QBP1” value was “more effective” and the “inhibition of Q57-YFP induced cell death” value was “inhibit”.
Consider WDWWPGIFD, for which the “Ability to Inhibit Aggregation” value with thio-Q62 (5 μm peptide and 15 μM thio-polyglutamine, 62 glutamines, 10 days) is recorded as “++ (++ = 50% inhibition)”.
Turning to WKWW, the “inhibition of polyglutamine-thioredoxin aggregation (FIG. 6 and 7)” value in the data set on thio-Q62 is recorded as “does not exhibit substantial inhibition of aggregation”.
On the same count and under the same terms, for “WKWWFD [QBP1-M6FD, QBP1-M7FD with the proline removed]” the value was “significant loss of activity”.
Regarding WKWWPFD, in the data set on thio-Q62, the “inhibition of polyglutamine-thioredoxin aggregation (FIG. 6 and 7)” value is on record as “some activity at high concentration”.
